Assay results taken from PubChem BioAssay AID330 (DTP/NCI, 2004).
Several values for one entry are separate records, joined by “and”; a condition that tells them apart may be missing. Equal values may be shown once. Toxic doses and inconclusive results are not listed. How the source made its calls: active means survival T/C of 150% or more; inactive means T/C below 125% in these data.

System: P388 leukemia ip, CD2F1 mice, survival T/C
Test: NCI In Vivo Anticancer Drug Screen. Data for tumor model P388 Leukemia (intraperitoneal) in CD2F1 (CDF1) mice
Settings: endpoint: median survival time, higher = longer survival
In short: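 Mice carrying the transplanted tumor received test compound or vehicle. Survival was recorded in each group, and the value is the treated-group measurement divided by that of the vehicle-treated control group.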

[1] = dose: 100.0 mg/kg/injection, schedule: Q04DX002 (ip), vehicle: saline with Tween-80
[2] = dose: 200.0 mg/kg/injection, schedule: Q04DX002 (ip), vehicle: saline with Tween-80
[3] = dose: 100.0 mg/kg/injection, schedule: Q04DX003 (ip), vehicle: Klucel (hydroxypropylcellulose) (HPC)
[4] = dose: 200.0 mg/kg/injection, schedule: Q04DX003 (ip), vehicle: Klucel (hydroxypropylcellulose) (HPC)
[5] = dose: 50.0 mg/kg/injection, schedule: Q01DX009 (ip), vehicle: saline
[6] = dose: 100.0 mg/kg/injection, schedule: Q01DX009 (ip), vehicle: saline
[7] = dose: 200.0 mg/kg/injection, schedule: Q01DX009 (ip), vehicle: saline
[8] = dose: 50.0 mg/kg/injection, schedule: Q01DX005 (ip), vehicle: saline with Tween-80
[9] = dose: 100.0 mg/kg/injection, schedule: Q01DX005 (ip), vehicle: saline with Tween-80
[10] = dose: 200.0 mg/kg/injection, schedule: Q01DX005 (ip), vehicle: saline with Tween-80
[11] = dose: 100.0 mg/kg/injection, schedule: Q04DX002 (ip), vehicle: saline
[12] = dose: 200.0 mg/kg/injection, schedule: Q04DX002 (ip), vehicle: saline
[13] = dose: 60.0 mg/kg/injection, schedule: Q01DX005 (ip), vehicle: saline with Tween-80
[14] = dose: 120.0 mg/kg/injection, schedule: Q01DX005 (ip), vehicle: saline with Tween-80
[15] = dose: 240.0 mg/kg/injection, schedule: Q01DX005 (ip), vehicle: saline with Tween-80
[16] = dose: 25.0 mg/kg/injection, schedule: Q01DX005 (ip), vehicle: Klucel (hydroxypropylcellulose) (HPC)
[17] = dose: 50.0 mg/kg/injection, schedule: Q01DX005 (ip), vehicle: Klucel (hydroxypropylcellulose) (HPC)
[18] = dose: 50.0 mg/kg/injection, schedule: Q01DX005 (ip), vehicle: saline
[19] = dose: 50.0 mg/kg/injection, schedule: Q01DX009 (ip), vehicle: Klucel (hydroxypropylcellulose) (HPC)

Measured: T/C

CC(=O)C1C(=O)C(=O)N(c2ccc(O)c(C(=O)O)c2)C1=O (stereo unspecified)
inactive: [1] 100 % of control | [2] 94 % of control | dose: 400.0 mg/kg/injection, schedule: Q04DX002 (ip), vehicle: saline with Tween-80 93 % of control

O=C(c1ccccc1)C(c1ccccc1)n1ncc2c1CCOC2 (stereo unspecified)
inactive: [3] 105 % of control | [4] 96 % of control | dose: 400.0 mg/kg/injection, schedule: Q04DX003 (ip), vehicle: Klucel (hydroxypropylcellulose) (HPC) 108 % of control

c1ccc2sc(N3CCCCC3)nc2c1
inactive: dose: 25.0 mg/kg/injection, schedule: Q04DX003 (ip), vehicle: Klucel (hydroxypropylcellulose) (HPC) 105 % of control | [5] 104 % of control | dose: 50.0 mg/kg/injection, schedule: Q04DX003 (ip), vehicle: Klucel (hydroxypropylcellulose) (HPC) 99 % of control | [6] 104 % of control | [3] 100 % of control | [7] 103 % of control | [4] 109 % of control

CC(C)(C)COC(=O)NC1CCC2CCCCC2C1 (stereo unspecified)
inactive: [5] 88 % of control | [6] 97 % of control | [7] 101 % of control

COC(=O)C1CC2CC(O)CN(CCc3c1[nH]c1ccccc31)C2 (stereo unspecified)
inactive: dose: 3.63 mg/kg/injection, schedule: Q01DX005 (ip), vehicle: Klucel (hydroxypropylcellulose) (HPC) 104 % of control | dose: 7.25 mg/kg/injection, schedule: Q01DX005 (ip), vehicle: Klucel (hydroxypropylcellulose) (HPC) 100 % of control | dose: 14.5 mg/kg/injection, schedule: Q01DX005 (ip), vehicle: Klucel (hydroxypropylcellulose) (HPC) 104 % of control | dose: 29.0 mg/kg/injection, schedule: Q01DX005 (ip), vehicle: Klucel (hydroxypropylcellulose) (HPC) 89 % of control

CCOC(=O)NC(=S)Nc1cn(C)cc1[N+](=O)[O-]
inactive: [8] 100 % of control | [9] 100 % of control | [10] 95 % of control

OCCN(CCO)c1cc(/C=C/c2c3ccccc3cc3ccccc23)nc2ccccc12
inactive: dose: 50.0 mg/kg/injection, schedule: Q01DX009 (ip), vehicle: saline with Tween-80 89 % of control | dose: 100.0 mg/kg/injection, schedule: Q01DX009 (ip), vehicle: saline with Tween-80 93 % of control | dose: 200.0 mg/kg/injection, schedule: Q01DX009 (ip), vehicle: saline with Tween-80 92 % of control

CNC(=O)OCc1c(COC(=O)NC)c2n(c1C)CCS2(=O)=O
inactive: dose: 25.0 mg/kg/injection, schedule: Q01DX005 (ip), vehicle: saline with Tween-80 106 % of control | [8] 101 % of control | [9] 86 % of control | [10] 88 % of control

Nc1nnc(-c2cccc(-c3nnc(N)o3)c2)o1
inactive: dose: 60.0 mg/kg/injection, schedule: Q01DX005 (ip), vehicle: saline 98 % of control | dose: 120.0 mg/kg/injection, schedule: Q01DX005 (ip), vehicle: saline 99 % of control | dose: 240.0 mg/kg/injection, schedule: Q01DX005 (ip), vehicle: saline 102 % of control

CC1C(=O)CCC2(C)CCC3C(OC(=O)C3(C)[Se]c3ccccc3)C12 (stereo unspecified)
inactive: [1] 97 % of control | [2] 98 % of control

CP1(=O)CCc2c1ccc1ccccc21 (stereo unspecified)
inactive: [11] 107 % of control | [12] 101 % of control

C=C1C(=O)C23C(O)C1CCC2C12CCCC(C)(C)C1C(O)C3(O)OC2 (stereo unspecified)
inactive: dose: 2.5 mg/kg/injection, schedule: Q01DX005 (ip), vehicle: Klucel (hydroxypropylcellulose) (HPC) 101 % of control | dose: 5.0 mg/kg/injection, schedule: Q01DX005 (ip), vehicle: Klucel (hydroxypropylcellulose) (HPC) 107 % of control | dose: 10.0 mg/kg/injection, schedule: Q01DX005 (ip), vehicle: Klucel (hydroxypropylcellulose) (HPC) 108 % of control

COC(=O)C1=C(OC(C)=O)c2ccccc2CS1
inactive: dose: 50.0 mg/kg/injection, schedule: Q01DX001 (ip), vehicle: Klucel (hydroxypropylcellulose) (HPC) 98 % of control | dose: 100.0 mg/kg/injection, schedule: Q01DX001 (ip), vehicle: Klucel (hydroxypropylcellulose) (HPC) 92 % of control | dose: 200.0 mg/kg/injection, schedule: Q01DX001 (ip), vehicle: Klucel (hydroxypropylcellulose) (HPC) 96 % of control

COc1c2occc2c(NC(=O)C(F)(F)F)c2ccc(=O)oc12
inactive: [11] 100 % of control | [12] 101 % of control

N#CC(C(=O)C(=O)Nc1ccc(Cl)c(Cl)c1)c1ccccc1 (stereo unspecified)
inactive: [13] 100 % of control | [14] 99 % of control

CC[n+]1cccc(O)c1
inactive: [5] 105 % of control and 94 % of control | [6] 95 % of control and 96 % of control | [7] 107 % of control and 95 % of control | dose: 400.0 mg/kg/injection, schedule: Q01DX009 (ip), vehicle: saline 100 % of control and 105 % of control

O=S(=O)(Nc1ccc(Cl)cc1)c1ccc(F)cc1
inactive: [13] 101 % of control | [14] 100 % of control | [15] 99 % of control

Nc1cc(Cl)cc2c1-c1ccc(Cl)cc1C2=O
inactive: [16] 96 % of control | [17] 91 % of control | dose: 100.0 mg/kg/injection, schedule: Q01DX005 (ip), vehicle: Klucel (hydroxypropylcellulose) (HPC) 90 % of control | dose: 200.0 mg/kg/injection, schedule: Q01DX005 (ip), vehicle: Klucel (hydroxypropylcellulose) (HPC) 89 % of control

CC1C2CCC3C4CC=C5CC(N(C)C)CCC5(C)C4CCC32CN1C (stereo unspecified)
inactive: dose: 12.5 mg/kg/injection, schedule: Q01DX005 (ip), vehicle: Klucel (hydroxypropylcellulose) (HPC) 105 % of control | dose: 12.5 mg/kg/injection, schedule: Q01DX005 (ip), vehicle: saline 94 % of control | [16] 105 % of control | dose: 25.0 mg/kg/injection, schedule: Q01DX005 (ip), vehicle: saline 94 % of control | dose: 25.0 mg/kg/injection, schedule: Q01DX009 (ip), vehicle: saline 105 % of control | [17] 103 % of control and 113 % of control | [18] 106 % of control and 107 % of control | [5] 88 % of control

COc1ccc2[se]c(C(=O)O)cc2c1
inactive: [5] 91 % of control | [6] 91 % of control

COC(=O)[C@H]1[C@H]2CCOC1(c1cc(OC)c(OC)c(OC)c1)c1cc3c(cc1[C@H]2O)OCO3
inactive: dose: 4.5 mg/kg/injection, schedule: Q01DX009 (ip), vehicle: Klucel (hydroxypropylcellulose) (HPC) 102 % of control | dose: 9.0 mg/kg/injection, schedule: Q01DX009 (ip), vehicle: Klucel (hydroxypropylcellulose) (HPC) 104 % of control | dose: 18.0 mg/kg/injection, schedule: Q01DX009 (ip), vehicle: Klucel (hydroxypropylcellulose) (HPC) 96 % of control | dose: 36.0 mg/kg/injection, schedule: Q01DX009 (ip), vehicle: Klucel (hydroxypropylcellulose) (HPC) 100 % of control

CCN(CC)CCCNc1cc(OC)cc2nc3cc(Cl)ccc3nc12
inactive: [18] 100 % of control | dose: 100.0 mg/kg/injection, schedule: Q01DX005 (ip), vehicle: saline 106 % of control

COC(=O)C(N)C(F)c1ccccc1 (stereo unspecified)
inactive: dose: 60.0 mg/kg/injection, schedule: Q01DX005 (ip), vehicle: Klucel (hydroxypropylcellulose) (HPC) 107 % of control | dose: 120.0 mg/kg/injection, schedule: Q01DX005 (ip), vehicle: Klucel (hydroxypropylcellulose) (HPC) 100 % of control | dose: 240.0 mg/kg/injection, schedule: Q01DX005 (ip), vehicle: Klucel (hydroxypropylcellulose) (HPC) 98 % of control

CN(C)c1ccc([N+]([O-])=Nc2ccc3ccccc3c2)cc1
inactive: dose: 30.0 mg/kg/injection, schedule: Q01DX005 (ip), vehicle: saline with Tween-80 96 % of control | [13] 87 % of control and 96 % of control | [14] 89 % of control | [15] 90 % of control

Cc1cc(NC(=O)C(=O)O)cc2c(=O)cc(C(=O)O)[nH]c12
inactive: dose: 25.0 mg/kg/injection, schedule: Q01DX009 (ip), vehicle: Klucel (hydroxypropylcellulose) (HPC) 102 % of control | [19] 117 % of control and 124 % of control

Cc1cc(C2(c3cc(C)c(O)c(C)c3)CC3CCC2C3)cc(C)c1O (stereo unspecified)
inactive: [19] 88 % of control | dose: 100.0 mg/kg/injection, schedule: Q01DX009 (ip), vehicle: Klucel (hydroxypropylcellulose) (HPC) 97 % of control | dose: 200.0 mg/kg/injection, schedule: Q01DX009 (ip), vehicle: Klucel (hydroxypropylcellulose) (HPC) 93 % of control
